We go through one molecule from ChEMBL document CHEMBL1156473, “Crystal structure of human estrogen-related receptor alpha in complex with a synthetic inverse agonist reveals its novel molecular mechanism” (J Biol Chem, 2007).

Experiment [1] concerns the target T1, Steroid hormone receptor ERR1 (Homo sapiens, UniProt P11474).
T1 sequence (P11474 whole entry): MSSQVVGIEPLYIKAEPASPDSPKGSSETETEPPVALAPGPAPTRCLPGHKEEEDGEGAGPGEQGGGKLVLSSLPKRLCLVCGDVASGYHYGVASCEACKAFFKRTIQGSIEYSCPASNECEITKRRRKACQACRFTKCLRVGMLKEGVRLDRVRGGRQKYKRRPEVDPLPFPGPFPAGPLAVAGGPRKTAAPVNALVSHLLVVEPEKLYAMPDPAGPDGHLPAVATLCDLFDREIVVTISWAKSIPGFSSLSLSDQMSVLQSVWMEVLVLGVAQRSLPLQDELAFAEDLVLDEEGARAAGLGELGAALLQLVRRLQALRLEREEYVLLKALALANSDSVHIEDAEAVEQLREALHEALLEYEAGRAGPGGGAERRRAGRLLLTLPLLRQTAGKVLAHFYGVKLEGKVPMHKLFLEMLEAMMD
The experiment in a line: Binding affinity to ERRalpha ligand binding domain by FRET assay.

Experiment [2] addresses T1, Steroid hormone receptor ERR1. Put plainly: Binding affinity to wild type ERRalpha ligand binding domain by isothermal titration calorimetry.
Experiment [3] in a line: Binding affinity to ERRalpha C325S mutant ligand binding domain expressed in sf9 cells by isothermal titration calorimetry. On the technique in general: Isothermal titration calorimetry measures the heat released or taken up as one component is titrated into another.

As for `c1ccc(-n2cc(CNCC3CCCCC3)c3ccccc32)cc1`, the IC50 (as a rule, the concentration that inhibits the measured activity by half) in experiment [1] stood at 700 nM. In addition, the Kd (as a rule, the free concentration of one partner at which half of the binding sites on the other are occupied at equilibrium, for simple one-to-one binding) turned out to be 770 nM in experiment [2] and 930 nM in experiment [3].
